Values of other authors in US7056858B2 (Varian, Inc., priority 2002, dated 2006).

Details: for π value: dipolarity/dipolarizability descriptor; for Σα value: hydrogen-bond acidity descriptor; for Σβ value: hydrogen-bond basicity descriptor

Compound	π value	Σα value	Σβ value
CN(C)C=O [N,N dimethylformamide]	0.56	0.00	0.44
CN1CCCC1=O [N-methylpyrrolidone]	0.57	0.00	0.43
NC=O [formamide]	0.46	0.33	0.21
